Numbers after ± are expanded uncertainties.
Settings: 298.15 K; 101.33 kPa; Liquid; Pycnometric method

Q: For CCO [ethanol], which mass density is on record?
A: Its mass density is 785.35 ± 0.71 kg/m3.

Q: Which mass density does the source give for CC(C)O [propan-2-ol] here?
A: The mass density was 781.35 ± 0.7 kg/m3.

Q: With CCCO [propan-1-ol] as the molecule, how does the mass density read?
A: The mass density was 799.98 ± 0.72 kg/m3.

Q: For CCC(C)O (stereo unspecified) [butan-2-ol], which mass density is on record?
A: Its mass density is 802 ± 1 kg/m3.

Q: With CCCCO [butan-1-ol] as the molecule, how does the mass density read?
A: The mass density was 805.85 ± 0.72 kg/m3.

Q: Which mass density does the source give for CO [methanol] here?
A: The mass density was 786.57 ± 0.71 kg/m3.
